Values of other authors, collected in patent US12090420B2, “Systems and methods for recovering amines and their derivatives from aqueous mixtures” (INV Nylon Chemicals Americas, LLC, priority 2018, dated 2024).

Conditions: not given

highest pKa value	Compound
10.5	CCCCCCN [Hexylamine]

Same assay, conditions: diamines

Higher pKa	Lower pKa	Compound
11.2	9.7	NCCCCN [1,4-butanediamine]

Same assay, conditions: diamines; 25° C.

Higher pKa	Lower pKa	Compound
11.02	10.24	NCCCCCCN [1,6-hexanediamine]
10.93	10.05	NCCCCCN [1,5-pentanediamine]

Same assay, conditions: monoamines; single pKa taken as highest pKa

pKa	Compound
10.56	CCCCCCN [Hexylamine]
5.42	c1ccc2cnccc2c1 [Isoquinoline]
10.63	CCCCCCCCCCCCCCCCN [Hexadecylamine]
5.58	c1ccc2c(c1)cnc1ccccc12 [Benzo[c]quinoline]
10.64	CCCCCCCCCN [Nonylamine]
5.52	Cc1cccnc1 [3-Methylpyridine]
10.43	CC(C)CN [iso-Butylamine]
6.08	Cc1ccncc1 [4-Methylpyridine]
10.65	CCCCCCCCN [Octylamine]
10.67	CCCCCCCN [Heptylamine]
5.89	CCc1ccccn1 [2-Ethylpyridine]

Compound	pKa
CCCCCN [Pentylamine]	10.63
